Test results published in patent US10179125B2, “Substituted pyridines as bromodomain inhibitors” (Zenith Epigenetics Ltd., priority 2014, dated 2019).

What was measured:
[1] = molecular target: T1, Brd4 bromodomain 1 (BRD4(1)) (Homo sapiens, UniProt O60885); assay: Inhibition of tetra-acetylated histone H4 binding to BET bromodomain (HTRF/FRET); conditions: His-tagged bromodomain 200 nM, biotinylated tetra-acetylated histone H4 peptide, 2 h room temperature
T1 construct: made in house; host or cells: E. coli BL21(DE3)
Experimental: Proteins were cloned and overexpressed with a N-terminal 6×His tag, then purified by nickel affinity followed by size exclusion chromatography. Briefly, E. coli BL21(DE3) cells were transformed with a recombinant expression vector encoding N-terminally Nickel affinity tagged bromodomains from Brd2, Brd3, Brd4. Cell cultures were incubated at 37° C. with shaking to the appropriate density and induced overnight with IPTG. The supernatant of lysed cells was loaded onto Ni-IDA column for purification, Eluted protein was pooled, concentrated and further purified by size exclusion chromatography. Fractions representing monomeric protein were pooled, concentrated, aliquoted, and frozen at −80° C. for use in subsequent experiments.
Binding of tetra-acetylated histone H4 and BET bromodomains was confirmed by a Homogenous Time Resolved Fluorescence Resonance Energy Transfer (HTRF®) method, N-terminally His-tagged bromodomains (200 nM) and biotinylated tetra-acetylated histone H4 peptide (25-50 nM, Millipore) were incubated in the presence of Europium Cryptate-labeled streptavidin (Cisbio Cat, #610SAKLB) and XL665-labeled monoclonal anti-His antibody (Cisbio Cat.1461HISXLB) in a white 96 well microtiter plate (Greiner). For inhibition assays, serially diluted test compound was added to these reactions in a 0.2% final concentration of DMSO. Duplicate wells were used for each concentration tested. Final buffer concentrations were 30 mM HEPES pH 7.4, 30 mM NaCl, 0.3 mM CHAPS, 20 mM phosphate pH 7.0, 320 mM KF, 0.08% BSA. After a 2 h incubation at room temperature, fluorescence was measured at 665 and 620 nm with a SynergyH4 plate reader (Biotek). The binding inhibitory activity was shown by a decrease in […] relative to 620 nm fluorescence. IC50 values were determined from a dose response curve.

[2] = tested on: cMYC; assay: Inhibition of cMYC expression in MV4-11 cells (real-time PCR); type: cell-based, Human; conditions: 3 h, cMYC mRNA; for IC50: Homo sapiens, read-out: c-myc activity
Experimental: MV4-11 cells (CRL-9591) were plated at a density of 2.5×10^4 cells per well in 96 well U-bottom plates and treated with increasing concentrations of test compound or DMSO (0.1%) in IMDM media containing 10% FBS and penicillin/streptomycin, and incubated for 3 h at 37° C. Triplicate wells were used for each concentration. Cells were pelleted by centrifugation and harvested using the mRNA Catcher PLUS kit according to manufacturer's instructions. The eluted mRNA isolated was then used in a one-step quantitative real-time PCR reaction, using components of the RNA UltraSense™ One-Step Kit (Life Technologies) together with Applied Biosystems TaqMan® primer-probes for cMYC and Cyclophilin, Real-time PCR plates were run on a ViiA™7 real time PCR machine (Applied Biosystems), data was analyzed, normalizing the Ct values for cMYC to an internal control, prior to determining the fold expression of each sample, relative to the control.

[3] = tested on: Human AML MV-4-11 cells; assay: Inhibition of cell proliferation in MV4-11 cells (CellTiter Aqueous One); type: cell-based; conditions: Homo sapiens, 72 h
Experimental: MV4-11 cells (CRL-9591) were plated at a density of 5×10^4 cells per well in 96 well flat bottom plates and treated with increasing concentrations of test compound or DMSO (0.1%) in IMDM media containing 10% FBS and penicillin/streptomycin. Triplicate wells were used for each concentration and a well containing only media was used as a control. Plates were incubated at 37° C., 5% CO2 for 72 h before adding 20 μL of the CellTiter Aqueous One Solution (Promega) to each well and incubated at 37° C., 5% CO2 for an additional 3-4 h. The absorbance was read at 490 nm in a spectrophotometer and the percentage of cell titer relative to DMSO-treated cells was calculated after correcting for background by subtracting the blank well's signal. IC50 values were calculated using the GraphPad Prism software.

[4] = tested on: hIL-6; assay: Inhibition of hIL-6 mRNA transcription in LPS-stimulated U937 cells; type: cell-based, Human; conditions: Homo sapiens, U-937, PMA-differentiated U937 cells, 1 h pretreatment, LPS 3 h, read-out: IL-6 activity
Experimental: Human leukemic monocyte lymphoma U937 cells (CRL-1593.2) were plated at a density of 3.2×10^4 cells per well in a 96-well plate in 100 μL RPMI-1640 containing 10% FBS and penicillin/streptomycin, and differentiated into macrophages for 3 days in 60 ng/mL PMA ([…]) at 37° C. in 5% CO2 prior to the addition of compound. The cells were pretreated for 1 h with increasing concentrations of test compound in 0.1% DMSO prior to stimulation with 1 ug/mL lipopolysaccharide from Escherichia coli. Triplicate wells were used for each concentration. The cells were incubated at 37° C., 5% CO2 for 3 h before the cells were harvested. At time of harvest, media was removed and cells were rinsed in 200 μL PBS. Cells were harvested using the mRNA Catcher PLUS kit according to manufacturer's instructions. The eluted mRNA was then used in a one-step quantitative real-time PCR reaction using components of the RNA UltraSense™ One-Step Kit (Life Technologies) together with Applied Biosystems TaqMan® primer-probes for hIL-6 and Cyclophilin. Real-time PCR plates were run on a ViiA™7 real time PCR machine (Applied Biosystems), data was analyzed, normalizing the Ct values for hIL-6 to an internal control, prior to determining the fold expression of each sample, relative to the control.

[5] = tested on: hIL-17; assay: Inhibition of hIL-17 mRNA transcription in OKT3-stimulated peripheral blood mononuclear cells; type: cell-based; conditions: human PBMC, OKT3 antibody 6 h, read-out: IL-17 activity
Experimental: Human peripheral blood mononuclear cells were plated (2.0×10^5 cells per well) in a 96-well plate in 45 μL OpTimizer T Cell expansion media (Life Technologies) containing 20 ng/ml IL-2 and penicillin/streptomycin. The cells were treated with increasing concentrations of the test compound or DMSO (0.1%), and incubated at 37° C., 5% CO2 for 1 h before addition of 10× stock OKT3 antibody at 10 ug/ml in media. Triplicate wells were used for each concentration, Cells were incubated at 37° C., 5% CO2 for 6 h before the cells were harvested. At time of harvest, cells were pelleted by centrifugation at 800 rpm for 5 min. Cells were harvested using the mRNA Catcher PLUS kit according to manufacturer's instructions. The eluted mRNA was then used in a one-step quantitative real-time PCR reaction, using components of the RNA UltraSense™ One-Step Kit (Life Technologies) together with Applied Biosystems TaqMan® primer-probes for hIL-17 and Cyclophilin. Real-time PCR plates were run on a ViiA™ 7 real time PCR machine (Applied Biosystems), data was analyzed, normalizing the Ct values for hIL-17 to an internal control, prior to determining the fold induction of each unknown sample, relative to the control.

Structure (SMILES) | IC50 [1] [nM] | IC50 [2] [nM] | IC50 [3] [nM] | IC50 [4] [nM] | IC50 [5] [nM] | c-myc activity [2]
COc1ncc(-c2c(C)noc2C)cc1Nc1c(C)noc1C [Example 43, N-(5-(3,5-dimethylisoxazol-4-yl)-2-methoxypyridin-3-yl)-3,5-dimethylisoxazol-4-amine] | ≤ 300 | ≤ 300 | 300 to 3000 | ≤ 300 | 300 to 3000 | –
COc1ncc(-c2c(C)noc2C)cc1NCc1ccc(F)cc1 [Example 6, 5-(3,5-dimethylisoxazol-4-yl)-N-(4-fluorobenzyl)-2-methoxypyridin-3-amine] | ≤ 300 | 300 to 3000 | 3000 to 30000 | 300 to 3000 | 300 to 3000 | –
COc1ncc(-c2c(C)noc2C)cc1NCc1cccc2ncccc12 [Example 58, 5-(3,5-dimethylisoxazol-4-yl)-2-methoxy-N-(quinolin-5-ylmethyl)pyridin-3-amine] | ≤ 300 | 300 to 3000 | 300 to 3000 | 300 to 3000 | – | –
CCOc1ncc(-c2c(C)noc2C)cc1NCc1ccccc1 [Example 39, N-benzyl-5-(3,5-dimethylisoxazol-4-yl)-2-ethoxypyridin-3-amine] | ≤ 300 | 300 to 3000 | 300 to 3000 | 300 to 3000 | – | –
Cc1noc(C)c1-c1cnc(Oc2ccccc2)c(NCc2ccccn2)c1 [Example 51, 5-(3,5-dimethylisoxazol-4-yl)-2-phenoxy-N-(pyridin-2-ylmethyl)pyridin-3-amine] | ≤ 300 | 300 to 3000 | 3000 to 30000 | 300 to 3000 | – | –
COc1ncc(-c2c(C)noc2C)cc1NCc1ccc(C#N)cc1F [Example 28, 4-(((5-(3,5-dimethylisoxazol-4-yl)-2-methoxypyridin-3-yl)amino)methyl)-3-fluorobenzonitrile] | ≤ 300 | 3000 to 30000 | 300 to 3000 | 300 to 3000 | – | –
COc1ncc(-c2c(C)noc2C)cc1NCc1cc(C)sc1C [Example 20, 5-(3,5-dimethylisoxazol-4-yl)-N-((2,5-dimethylthiophen-3-yl)methyl)-2-methoxypyridin-3-amine] | ≤ 300 | 3000 to 30000 | 3000 to 30000 | 300 to 3000 | – | –
COc1ncc(-c2c(C)noc2C)cc1NCc1ccc(Cl)cc1 [Example 14, N-(4-chlorobenzyl)-5-(3,5-dimethylisoxazol-4-yl)-2-methoxypyridin-3-amine] | ≤ 300 | – | 3000 to 30000 | 3000 to 30000 | 300 to 3000 | –
COc1ncc(-c2c(C)noc2C)cc1OCc1ccc(F)cc1 [Example 32, 4-(5-((4-fluorobenzyl)oxy)-6-methoxypyridin-3-yl)-3,5-dimethylisoxazole] | ≤ 300 | 3000 to 30000 | 3000 to 30000 | 300 to 3000 | – | –
COc1ncc(-c2c(C)noc2C)cc1Oc1ccccc1 [Example 4, 4-(6-methoxy-5-phenoxypyridin-3-yl)-3,5-dimethylisoxazole] | 300 to 3000 | 300 to 3000 | 3000 to 30000 | 300 to 3000 | – | –
COc1ncc(-c2c(C)noc2C)cc1OC(C)c1ccccc1 (stereo not drawn) [Example 31, 4-(6-methoxy-5-(1-phenylethoxy)pyridin-3-yl)-3,5-dimethylisoxazole] | ≤ 300 | 3000 to 30000 | 300 to 3000 | 300 to 3000 | – | –
COc1ncc(-c2c(C)noc2C)cc1Nc1ccccc1F [Example 18, 5-(3,5-dimethylisoxazol-4-yl)-N-(2-fluorophenyl)-2-methoxypyridin-3-amine] | ≤ 300 | 3000 to 30000 | 3000 to 30000 | 300 to 3000 | – | –
COc1ncc(-c2c(C)noc2C)cc1Nc1cc(C(N)=O)ccc1C [Example 62, 3-((5-(3,5-dimethylisoxazol-4-yl)-2-methoxypyridin-3-yl)amino)-4-methylbenzamide] | ≤ 300 | 300 to 3000 | 3000 to 30000 | 300 to 3000 | – | –
COc1ncc(-c2c(C)noc2C)cc1NCCc1ccccc1 [Example 26, 5-(3,5-dimethylisoxazol-4-yl)-2-methoxy-N-phenethylpyridin-3-amine] | 300 to 3000 | 3000 to 30000 | 3000 to 30000 | 3000 to 30000 | – | –
COc1ncc(-c2c(C)noc2C)cc1NCc1cccnc1 [Example 33, 5-(3,5-dimethylisoxazol-4-yl)-2-methoxy-N-(pyridin-3-ylmethyl)pyridin-3-amine] | ≤ 300 | 300 to 3000 | 300 to 3000 | 300 to 3000 | – | –
COc1ncc(-c2c(C)noc2C)cc1NCc1cnoc1 [Example 42, 5-(3,5-dimethylisoxazol-4-yl)-N-(isoxazol-4-ylmethyl)-2-methoxypyridin-3-amine] | ≤ 300 | 300 to 3000 | 3000 to 30000 | 300 to 3000 | – | –
COc1ncc(-c2c(C)noc2C)cc1Oc1cccnc1C [Example 66, 4-(6-methoxy-5-((2-methylpyridin-3-yl)oxy)pyridin-3-yl)-3,5-dimethylisoxazole] | 300 to 3000 | 3000 to 30000 | 3000 to 30000 | 300 to 3000 | – | –
CNc1ncc(-c2c(C)noc2C)cc1NCc1ccsc1 [Example 68, 5-(3,5-dimethylisoxazol-4-yl)-N2-methyl-N3-(thiophen-3-ylmethyl)pyridine-2,3-diamine] | ≤ 300 | 300 to 3000 | 300 to 3000 | 300 to 3000 | – | –
COc1ncc(-c2c(C)noc2C)cc1OCc1ccc(C#N)cc1 [Example 30, 4-(((5-(3,5-dimethylisoxazol-4-yl)-2-methoxypyridin-3-yl)oxy)methyl)benzonitrile] | ≤ 300 | – | 3000 to 30000 | 3000 to 30000 | – | Not Active
